Measured values: patent publication US20080119530A1, “Method for treatment and prevention of ultraviolet light induced skin pathologies” (priority 2006, published 2008)

Experiments:
[1] = tested on: platelet-derived growth factor receptor kinase
[2] = tested on: skin; experiment: TUNEL analysis of apoptotic basal cells in UV-exposed skin; design: species or system mouse; conditions: 24 h after UV, in vivo
Method: Microscopy. Hematoxylin and eosin staining was performed on paraffin-embedded sections following standard protocols. Following antigen retrieval, paraffin-embedded sections were incubated with antibodies to keratin 1, keratin 6, filaggrin (all from Covance, Princeton, N.J.), or […] (R&D Systems, Minneapolis, Minn.), Alexa Fluor 488-conjugated secondary antibody (Molecular Probes), and 4′,6-diamidino-2-phenylindole (DAPI; Vector Laboratories, Burlingame, Calif.). Apoptotic cells were identified using terminal deoxynucleotidyl transferase-mediated dUTP nick end labeling (TUNEL; Promega, Madison, Wis.).
Therefore, the effect of inhibition of Erbb2 on apoptotic cell death was examined in vivo by TUNEL. The percentage of TUNEL-positive basal cells peaked at 18% in vehicle-treated skin at 24 h after UV.
It has been discovered that Erbb2 modulates the expression of genes important in both proliferation and apoptosis following UV exposure in vivo (Example 9). Accordingly, the influence of Erbb2 on both apoptosis and cell proliferation was assessed in order to determine the mechanisms of Erbb2's effect on hyperplasia in the skin after UV irradiation. Erbb2 suppresses UV-induced apoptosis in vitro, although the effect was slight (32). […]

[3] = molecular target: insulin-like growth factor I receptor kinase (Homo sapiens, UniProt P08069)
Sequence of insulin-like growth factor I receptor kinase (P08069 31-1367): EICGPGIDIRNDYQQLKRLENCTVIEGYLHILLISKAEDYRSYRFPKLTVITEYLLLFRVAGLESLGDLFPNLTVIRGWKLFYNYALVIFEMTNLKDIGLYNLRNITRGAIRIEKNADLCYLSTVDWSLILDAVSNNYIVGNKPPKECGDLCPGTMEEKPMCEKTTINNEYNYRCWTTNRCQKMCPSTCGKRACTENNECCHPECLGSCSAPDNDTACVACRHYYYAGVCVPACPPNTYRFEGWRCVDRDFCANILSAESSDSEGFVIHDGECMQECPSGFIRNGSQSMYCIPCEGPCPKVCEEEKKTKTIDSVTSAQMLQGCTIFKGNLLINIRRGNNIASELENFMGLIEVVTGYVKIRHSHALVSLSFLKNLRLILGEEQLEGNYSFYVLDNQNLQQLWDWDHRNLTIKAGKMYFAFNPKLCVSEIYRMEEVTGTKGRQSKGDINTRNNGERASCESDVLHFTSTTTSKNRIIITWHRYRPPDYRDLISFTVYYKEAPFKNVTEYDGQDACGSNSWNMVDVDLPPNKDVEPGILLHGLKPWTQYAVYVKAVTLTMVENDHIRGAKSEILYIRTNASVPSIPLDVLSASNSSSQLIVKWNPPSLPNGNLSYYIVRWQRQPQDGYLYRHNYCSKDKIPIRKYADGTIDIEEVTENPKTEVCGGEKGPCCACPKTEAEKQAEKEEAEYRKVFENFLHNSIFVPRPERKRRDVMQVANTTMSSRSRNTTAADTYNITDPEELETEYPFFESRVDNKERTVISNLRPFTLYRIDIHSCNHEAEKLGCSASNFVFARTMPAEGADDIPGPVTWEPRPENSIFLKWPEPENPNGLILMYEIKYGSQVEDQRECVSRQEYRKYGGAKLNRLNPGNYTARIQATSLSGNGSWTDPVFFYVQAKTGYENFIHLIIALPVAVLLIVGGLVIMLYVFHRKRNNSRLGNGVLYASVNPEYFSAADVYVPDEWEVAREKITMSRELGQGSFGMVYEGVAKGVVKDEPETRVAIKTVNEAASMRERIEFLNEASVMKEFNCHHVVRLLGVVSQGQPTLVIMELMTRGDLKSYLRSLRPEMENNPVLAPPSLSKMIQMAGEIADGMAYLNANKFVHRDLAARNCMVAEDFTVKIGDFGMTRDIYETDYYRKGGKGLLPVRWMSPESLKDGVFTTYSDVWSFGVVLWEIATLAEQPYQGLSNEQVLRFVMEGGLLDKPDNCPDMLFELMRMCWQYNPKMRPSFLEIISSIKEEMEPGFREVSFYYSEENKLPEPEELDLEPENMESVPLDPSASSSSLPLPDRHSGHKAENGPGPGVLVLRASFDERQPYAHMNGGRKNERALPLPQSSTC

[4] = tested on: Cdc25a; experiment: Cdc25a immunoblotting in keratinocytes; assay type: cell-based, mouse; conditions: vs appropriate controls
Method: Immunoblotting. Flash frozen skin was ground with a mortar and pestle on dry ice, homogenized in lysis buffer containing 10 mM Tris (pH 7.4), 150 mM NaCl, 10% glycerol, 1% Triton X-100, 1 mM EDTA, Complete Protease Inhibitor Cocktail (Roche, Germany), 1 mM Na3V O4, 1.5 μM EGTA, and 10 μM NaF. Protein was quantified using the Coomassie Brilliant Blue G-250 protein assay (Bio-Rad, Hercules, Calif.). The evenness of loading and transfer was determined by staining with Ponceau S and by actin immunoblotting. […]
Cell culture. […] Transfection efficiency was quantified by determining the proportion of the cells that incorporated the fluorescent Cy3-conjugated siRNA or GFP one day post-transfection. […]
In order to understand how Erbb2 regulates S-phase progression following UV irradiation, signaling pathways known to regulate progression into and through S-phase were examined. […] The effect of abrogation of Erbb2 on Cdc25a occurred post-transcriptionally, since no decrease in Cdc25a mRNA was detected in our microarray analysis using the Erbb2 inhibitor (32). […]

[5] = molecular target: Abl (Homo sapiens, UniProt P00519)
Sequence of Abl (P00519 whole entry, species assumed): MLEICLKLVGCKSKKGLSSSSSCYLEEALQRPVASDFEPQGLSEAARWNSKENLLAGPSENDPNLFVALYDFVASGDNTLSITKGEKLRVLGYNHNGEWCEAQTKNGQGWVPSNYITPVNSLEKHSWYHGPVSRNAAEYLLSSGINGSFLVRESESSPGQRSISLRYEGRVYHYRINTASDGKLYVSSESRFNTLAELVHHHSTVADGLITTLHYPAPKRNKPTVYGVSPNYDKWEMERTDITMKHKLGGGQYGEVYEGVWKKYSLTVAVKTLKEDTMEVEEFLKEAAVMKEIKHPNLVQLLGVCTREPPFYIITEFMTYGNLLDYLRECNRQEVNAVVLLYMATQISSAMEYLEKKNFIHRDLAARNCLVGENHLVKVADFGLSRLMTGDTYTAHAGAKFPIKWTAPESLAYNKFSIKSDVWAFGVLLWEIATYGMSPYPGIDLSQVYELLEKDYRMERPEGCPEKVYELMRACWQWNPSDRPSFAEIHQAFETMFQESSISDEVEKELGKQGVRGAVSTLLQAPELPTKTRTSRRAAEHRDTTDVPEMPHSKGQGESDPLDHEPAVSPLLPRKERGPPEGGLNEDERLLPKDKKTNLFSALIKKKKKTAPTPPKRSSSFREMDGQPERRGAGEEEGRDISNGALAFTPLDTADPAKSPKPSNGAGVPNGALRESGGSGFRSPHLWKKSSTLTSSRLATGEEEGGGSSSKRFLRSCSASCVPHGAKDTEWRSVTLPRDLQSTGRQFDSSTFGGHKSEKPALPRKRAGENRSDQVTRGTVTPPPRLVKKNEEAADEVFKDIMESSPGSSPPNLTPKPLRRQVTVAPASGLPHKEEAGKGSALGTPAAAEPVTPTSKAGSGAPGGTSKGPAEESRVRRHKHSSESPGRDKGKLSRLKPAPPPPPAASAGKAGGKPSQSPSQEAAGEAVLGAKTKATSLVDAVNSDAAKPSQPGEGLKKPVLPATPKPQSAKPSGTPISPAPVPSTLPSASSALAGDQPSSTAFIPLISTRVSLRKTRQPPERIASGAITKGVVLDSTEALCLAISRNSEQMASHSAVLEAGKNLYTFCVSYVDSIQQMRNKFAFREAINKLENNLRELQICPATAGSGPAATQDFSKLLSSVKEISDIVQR

[6] = molecular target: T1, Erbb2 (Mus musculus, UniProt P70424); experiment: UV-induced activation (phosphorylation) of Erbb2; assay type: cell-based
T1 construct: endogenous in cells; host or cells: primary newborn mouse keratinocytes; also mouse epidermis/skin extracts
T1 sequence (P70424 23-1256): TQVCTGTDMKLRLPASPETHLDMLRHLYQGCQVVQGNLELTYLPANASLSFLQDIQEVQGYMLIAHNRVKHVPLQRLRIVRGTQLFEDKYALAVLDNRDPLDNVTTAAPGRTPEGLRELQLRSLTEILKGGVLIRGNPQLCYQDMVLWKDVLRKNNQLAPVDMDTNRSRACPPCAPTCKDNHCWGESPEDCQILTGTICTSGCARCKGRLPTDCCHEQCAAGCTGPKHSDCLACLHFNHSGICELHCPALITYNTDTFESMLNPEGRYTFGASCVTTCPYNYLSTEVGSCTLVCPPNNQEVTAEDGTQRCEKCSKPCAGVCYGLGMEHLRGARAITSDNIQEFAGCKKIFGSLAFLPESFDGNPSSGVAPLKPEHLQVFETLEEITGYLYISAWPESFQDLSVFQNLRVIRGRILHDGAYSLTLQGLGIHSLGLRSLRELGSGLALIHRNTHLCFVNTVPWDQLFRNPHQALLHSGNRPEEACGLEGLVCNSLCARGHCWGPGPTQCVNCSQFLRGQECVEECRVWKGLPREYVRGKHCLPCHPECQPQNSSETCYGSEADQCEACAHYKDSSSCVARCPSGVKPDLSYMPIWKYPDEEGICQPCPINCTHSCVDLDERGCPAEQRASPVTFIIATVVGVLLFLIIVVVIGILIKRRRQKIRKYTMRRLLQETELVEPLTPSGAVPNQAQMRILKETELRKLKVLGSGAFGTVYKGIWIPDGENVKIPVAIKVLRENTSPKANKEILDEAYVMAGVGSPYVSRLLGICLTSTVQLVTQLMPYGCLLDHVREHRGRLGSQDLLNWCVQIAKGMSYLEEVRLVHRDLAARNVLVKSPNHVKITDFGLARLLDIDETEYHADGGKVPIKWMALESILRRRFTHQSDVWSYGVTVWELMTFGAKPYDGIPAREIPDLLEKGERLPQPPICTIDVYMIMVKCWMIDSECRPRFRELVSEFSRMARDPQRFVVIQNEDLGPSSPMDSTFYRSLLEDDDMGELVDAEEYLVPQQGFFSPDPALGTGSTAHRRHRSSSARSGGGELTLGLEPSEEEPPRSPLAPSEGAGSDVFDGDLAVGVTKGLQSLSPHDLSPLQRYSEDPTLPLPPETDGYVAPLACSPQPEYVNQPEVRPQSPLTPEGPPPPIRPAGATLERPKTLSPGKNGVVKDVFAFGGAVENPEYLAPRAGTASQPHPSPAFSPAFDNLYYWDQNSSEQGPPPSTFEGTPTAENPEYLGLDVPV
Description: For some experiments, the epidermis was separated from the skin by the heat shock method before homogenization. Keratinocytes were lysed in the same buffer. Membranes were immunoblotted with antibodies recognizing Erbb2, phospho-Erbb2 (Tyr^1248), EGFR, phospho-EGFR (Tyr^992), phospho-EGFR (Tyr^1173), phosphotyrosine, and Tall (Calbiochem, San Diego, Calif.). Binding of horseradish peroxidase-conjugated secondary antibodies (Cell Signaling, Beverly, Mass.) was visualized using chemiluminescent reagents (Pierce, Rockford, Ill.) and autoradiography. Densitometry was performed using IDScan software (Scanalytics, Fairfax, Va.).
Several methods were developed to regulate Erbb2 expression and activity both in vitro and in vivo.

COc1cc(/C=C(\C#N)C(N)=O)cc(CSc2nc3ccccc3s2)c1O [AG825]
fold higher IC50 for platelet-derived growth factor receptor kinase than for Erbb2 [1]: more than 100 fold | apoptotic cell death (TUNEL-positive basal cells) [2]: did not increase | fold higher IC50 for insulin-like growth factor I receptor kinase than for Erbb2 [3]: more than 100 fold | Cdc25a immunoreactivity [4]: decreased | fold higher IC50 for Abl than for Erbb2 [5]: more than 100 fold | duration of the inhibition of Erbb2 [6]: less than 24 h | activation of Erbb2 by UV ([6]; both in vivo and in vitro): blocked | UV-induced phosphorylation of Erbb2 at Tyr1248 ([6]; cultured keratinocytes): inhibited
